# Data as given in patent US20060281763A1, “Carboxamide inhibitors of TGFbeta” (priority 2005, published 2006).
# Target: T1, TGFβ R1 (Homo sapiens, UniProt P36897)
# T1 sequence (P36897 34-503): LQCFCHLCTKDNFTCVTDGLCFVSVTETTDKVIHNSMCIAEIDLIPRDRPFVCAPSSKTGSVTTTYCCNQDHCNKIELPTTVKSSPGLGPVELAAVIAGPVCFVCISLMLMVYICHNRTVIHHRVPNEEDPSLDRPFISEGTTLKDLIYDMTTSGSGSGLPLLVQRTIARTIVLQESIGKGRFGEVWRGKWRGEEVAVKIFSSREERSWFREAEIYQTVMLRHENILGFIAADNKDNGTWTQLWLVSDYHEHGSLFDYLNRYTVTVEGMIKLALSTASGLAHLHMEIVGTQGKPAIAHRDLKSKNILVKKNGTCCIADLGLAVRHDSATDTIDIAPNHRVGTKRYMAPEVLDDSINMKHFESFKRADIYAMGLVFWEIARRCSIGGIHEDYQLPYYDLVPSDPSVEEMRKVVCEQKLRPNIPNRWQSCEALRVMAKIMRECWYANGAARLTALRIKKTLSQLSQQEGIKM
# Test: TGFβ R1 autophosphorylation protocol (33P-ATP, phosphocellulose filter plate)
# Assay type: biochemical
# Conditions: 10 uM ATP, 170 nM TGFβ R1, room temperature 20 minutes, read-out: IC50 for Kinase Inhibition
# Method in brief: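 Radiometric autophosphorylation: 170 nM enzyme with compound (≤1% DMSO), 10 uM ATP plus γ-33P-ATP, […] in 20 mM MOPS pH 7, 20 min at room temperature. Reaction stopped on phosphocellulose filter, washed with H3PO4 and ethanol, counted by scintillation.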
row,SMILES,IC50
1,"CC(C)c1cnc(-c2cc(Cl)ccc2F)nc1Nc1ccncc1C(=O)N[C@@H]1CCC[C@H]1O [Compound 236, 4-[2-(5-Chloro-2-fluoro-phenyl)-5-isopropyl-pyrimidin-4-ylamino]-N-(2-hydroxy-cyclopentyl)-nicotinamide]",123 nM
2,"CCCN(CCC)C(=O)C(=O)c1cnccc1Nc1nc(-c2cc(Cl)ccc2F)ncc1OC [Compound 240, 2-{4-[2-(5-Chloro-2-fluoro-phenyl)-5-methoxy-pyrimidin-4-ylamino]-pyridin-3-yl}-2-oxo-N,N-dipropyl-acetamide]",3080 nM
3,"COc1cnc(-c2cc(Cl)ccc2F)nc1Nc1ccncc1C(=O)N1CC[C@@H](F)C1 [Compound 241, {4-[2-(5-Chloro-2-fluoro-phenyl)-5-methoxy-pyrimidin-4-ylamino]-pyridin-3-yl}-(3-fluoro-pyrrolidin-1-yl)-methanone]",127 nM
4,"CC(C)c1cnc(-c2cc(Cl)ccc2F)nc1Nc1ccncc1C(=O)N[C@H]1CCC[C@@H]1O [Compound 247, 4-[2-(5-Chloro-2-fluoro-phenyl)-5-isopropyl-pyrimidin-4-ylamino]-N-(2-hydroxy-cyclopentyl)-nicotinamide]",40 nM

# The next lines start with the values.
row,IC50,SMILES
1,63 nM,"COc1cnc(-c2cc(Cl)ccc2F)nc1Nc1ccncc1C(=O)NCCCNS(C)(=O)=O [Compound 237, 4-[2-(5-Chloro-2-fluoro-phenyl)-5-methoxy-pyrimidin-4-ylamino]-N-(3-methanesulfonylamino-propyl)-nicotinamide]"
2,1080 nM,"COc1cnc(-c2cc(Cl)ccc2F)nc1Nc1ccncc1C(=O)NO [Compound 238, 4-[2-(5-Chloro-2-fluoro-phenyl)-5-methoxy-pyrimidine-4-ylamino]-N-hydroxy-nicotinamide]"
3,7740 nM,"COc1cnc(-c2cc(Cl)ccc2F)nc1Nc1ccncc1C(=O)C(=O)N(C)C [Compound 239, 2-{4-[2-(5-Chloro-2-fluoro-phenyl)-5-methoxy-pyrimidin-4-ylamino]-pyridin-3-yl]-N,N-dimethyl-2-oxo-acetamide]"
